# Laboratory results: US20240374626A1, “METHODS OF ENHANCING MILK PRODUCTION IN LACTATING MAMMALIAN SUBJECTS” (priority 2023, published 2024)
# Tested on: HC11 cells
# Assay: Milk production markers in differentiated HC11 (milk domes, Csn2 RT-qPCR, CSN2 WB, PLIN2 ICC)
# Assay type: cell-based, mouse
# Conditions: HC11, doxorubicin 50 nM, differentiated
# Method: The HC11 cell line was obtained from American Type Culture Collection (ATCC) and routinely checked for mycoplasma (Mycoplasma PCR kit, ABM, G238). Undifferentiated HC11 cells were cultured in growing medium (RPMI-1640; Thermo Fisher Scientific, 72400047), supplemented with 10% FBS, 5 μg/ml insulin (Millipore-Sigma, 16634), 10 ng/ml epidermal growth factor (EGF; Preprotech, AF-100-15) and 1× AntiAnti (Thermo Fisher Scientific, 15240112) at 37° C. with 5% CO2. Cells were grown to confluency and maintained in growing medium for 2 days, until they became competent. Competent HC11 cells were primed for differentiation by culturing them in priming medium [RPMI-1640 supplemented with 5 μg/ml insulin, 1 μM dexamethasone (Millipore-Sigma, D4902-1 G) and 1× Anti-Anti] for 24 h at 37° C. with 5% CO2. To induce differentiation, primed HC11 cells were cultured in DIP Medium [RPMI-1640, supplemented with 10% FBS, 5 μg/ml insulin, 1 μM dexamethasone, 1× anti-anti and 3 μg/ml Prolactin (NHPP, oPRL-21)] at 37° C. with 5% CO2.
# […] Drugs were maintained through the differentiation process and added with every change of media.
# Whole cell lysates were prepared using 1×NP40 lysis buffer (Thermo Fisher Scientific, FNN0021) supplemented with Pierce Protease and Phosphatase inhibitors (Thermo Fisher Scientific, A32959). Cells were washed with ice-cold PBS (GIBCO, 14190136) and lysed direct in buffer and kept at 4° C. rocking at 70 rpm for 30 min. Lysed cells were collected and centrifuged at 12,000 rpm at 4° C. for 15 min. Protein concentration was quantified using Qubit 4 fluorometer (Thermo Fisher, Q33238). Samples were resolved by SDS page and transferred to polyvinylidene difluoride (PVDF, Millipore-Sigma, IPVH00010) for 60 min at 250 mA. Immunoblots were blocked for 1 h at room temperature using either 5% non-fat milk or 5% BSA TBST. Primary antibodies [anti-GAPDH (SCBT, sc-365062), anti-Actin (SCBT, sc-47778), anti-Cyclin B1 (SCBT, sc-245), anti-Cyclin E1 (Millipore-Sigma, SAB4503516) and anti-CSN2 (ABclonal, A12749)] were incubated overnight at 4° C. in a rocker. HRP-conjugated secondary antibodies ([…]) were used for 1 h at room temperature. Immunoblots were developed using Clarity ECL (Bio-Rad), detected using a Bio-Rad ChemiDoc MP Image, and quantified using ImageJ.
# HC11 cells were fixed using ice-cold MeOH for 10 min. After washing with 1×PBS, cells were incubated for 1 h at room temperature with primary antibodies [anti-γH2AX (SCBT, sc-517348), anti-pATR (Genetex, GTX128145), anti-PLIN2 (generously provided by Jim McManaman)] in a humid incubation chamber. After incubation, cells were washed three times using 1×PBS and incubated for 1 h at room temperature in darkness using corresponding Alexa Fluor AffiniPure secondary antibodies (Jackson ImmunoResearch) and Phalloidin-iFluor 488 Reagent (Abcam, ab176753) when indicated. Cells were washed three times using 1×PBS and incubated with Hoechst 33342 (AnaSpec, AS-83218) for 10 min. Cells were mounted using fluoromount-G (Southern Biotech, 0100-01) and visualized using Zeiss Axio Imager Microscope. Integrated density of PLIN2, nuclear γH2AX and nuclear pATR was quantify using ImageJ.
# For RNA isolation from FACS purified populations, mammary gland cell suspensions were blocked using Mouse BD Fc Block™ (BD Biosciences) for 10 min. Cells were subsequently resuspended on 1×PBS at a density of 10^7 cells/ml and stained with the following antibodies for 30 min on ice: anti-CD24 PE (Stem Cell Technologies, 60099PE.1), anti-CD29 PE-Cy7 (BioLegend, 102222), anti-CD45-APC (BioLegend,105826), Ter119-APC (BD Biosciences, 561033), CD31-ACP (BD Biosciences, 551262). Propidium iodide at a final concentration of 0.5 μg/ml was used for the discrimination of dead cells. Stromal, basal and luminal mammary populations were sorted using a BD FACS Aria II Cell Sorter. […]
smiles,measurement,value
COc1cccc2c1C(=O)c1c(O)c3c(c(O)c1C2=O)C[C@@](O)(C(=O)CO)C[C@@H]3O[C@H]1C[C@H](N)[C@H](O)[C@H](C)O1 [doxorubicin],"CSN2, WB",increase
